Patent publication US20230126310A1 (priority 2020, published 2023)
Counter-ions that a name gives are not always drawn. Like-named read-outs stand apart in the source and are kept apart here.

Experiments:
[1] = tested on: SARS-CoV-2 (BetaCov/Belgium/GHB-03021/2020); assay: microbe, parasite or virus in culture; format: cell-based; conditions: for Emax: read-out: Maximum confluence reached (%)
SARS-CoV-2 [2] = assay: microbe, parasite or virus in culture; conditions: Severe acute respiratory syndrome coronavirus 2, Caco-2, 48 h; for inhibition at 10 µM: read-out: % Inh. (% Inhibition of SARS-CoV-2)
CaCo-2 cells = assay: Compound cytotoxicity against CaCo-2 cells at 48 hours; format: cell-based, Human; conditions: read-out: CC50: concentration of 50% cytotoxicity; Table 5, further results of Examples 1 and 2; mean ± spread
Experimental: (§1) The cytotoxicity of the profiled compounds towards CaCo-2 cells at 48 hours was assessed. […] After 48 hours, cytotoxicity was evaluated using both digital phase contrast readout as described above and ATP determination (Cell titre-glo, Promega Corp).

SARS-CoV-2 [3] = conditions: for % Inh. (% Inhibition of SARS-CoV-2): 10 µM; for % Inh (% inhibition of virus infection): comparative experiments, Examples 1 and 2
[4] = Compound cytotoxicity against CaCo-2 cells at 48 hours; format: cell-based, Human; conditions: human; comparative experiments, CaCo-2 cells, 48 hours
Experimental: as §1

[5] = Severe acute respiratory syndrome coronavirus 2, 120 h
[6] = Table 5, further results of Examples 1 and 2
[7] = read-out: IC50: concentration of 50% inhibition of virus infection, Table 5, further results of Examples 1 and 2, […]

Compound	CC50 (CaCo-2 cells) [µM]	% Inh. (% Inhibition of SARS-CoV-2) (SARS-CoV-2 [3]) [%]	pIC50: -log10 of IC50 (SARS-CoV-2 [3]; [6])	IC50 (SARS-CoV-2 [3]; [7]) [nM]	further results
CCCCN(CCCC)CCC(O)c1cc2c(Cl)cc(Cl)cc2c2cc(C(F)(F)F)ccc12 (stereo not drawn) [Halofantrine]					Emax [1, 5]: 51.8%; inhibition at 10 µM (SARS-CoV-2 [2]): 91.4%
Cc1cccc2c1CC[C@H](CN1CCC(c3c(Cl)cccc3Cl)CC1)C[C@@H]2O [SB-612111]	3.67 ± 3.21	146.6	6.11	770 ± 290	
C/C(=N\NC(=S)N1CCC1)c1ccccn1 [NSC319726]	< 0.02	104.2	> 7.70	< 20	pIC50 (SARS-CoV-2 [3]): 8.00
CC(=O)[C@]1(O)Cc2c(O)c3c(c(O)c2[C@@H](O[C@H]2C[C@H](N)[C@H](O)[C@H](C)O2)C1)C(=O)c1ccccc1C3=O [Idarubicin HCl]					Emax [1, 5]: 92.6%; IC50 (SARS-CoV-2 [2]): 25 µM; inhibition at 10 µM (SARS-CoV-2 [2]): 86.6%; IC50 (SARS-CoV-2 [2]; read-out: pIC50 (converted)): 25.1 µM
Cc1ccc(NC(=O)c2ccc(CN3CCN(C)CC3)cc2)cc1Nc1nc(-c2cccnc2)cs1 [Masitinib (AB1010), Masitinib]					Emax [1, 5]: 57.1%; inhibition at 10 µM (SARS-CoV-2 [2]): 108%
Cc1nn(C)c2nc(NNC(=O)Nc3cc(Cl)nc(Cl)c3)cc(C(C)C)c12 [JTE-013]	16.4 ± 0.42	105.9	5.22	5970 ± 150	IC50 (SARS-CoV-2 [3]): 3660 nM; pIC50 (SARS-CoV-2 [3]): 5.44
O=C(CCCN1CCC2(CC1)C(=O)N(Cc1cccc(F)c1)CN2c1ccccc1)c1ccc(F)cc1.O=C(O)/C=C\C(=O)O [3′-fluorobenzylspiperone]					Maximum confluence reached (%) [1]: 43.04%
COc1cc2ncnc(Nc3cccc(Br)c3)c2cc1OC.Cl [PD153035 (Hydrochloride)]		97.2			Maximum confluence reached (%) [1]: 54.45%
CC/C(=C(\c1ccc(O)cc1)c1ccc(OCCNC)cc1)c1ccccc1 [Endoxifen HCl]					IC50 [1, 5]: 6.34 µM; Emax [1, 5]: 35.7%
C[CH2][Hg][S]c1ccccc1C(=O)[O-].[Na+] [THIMEROSAL]	13.5 ± 1.23	79.4			IC50 (SARS-CoV-2 [3]): 1770 nM; pIC50 (SARS-CoV-2 [3]): 5.75; pIC50: -log10 of IC50 (SARS-CoV-2 [3]): 5.77; IC50 (SARS-CoV-2 [3]; read-out: IC50: concentration of 50% inhibition of virus infection): 1690 ± 130 nM
Cn1cc(-c2ccc3c(c2)CCN3C(=O)Cc2cccc(C(F)(F)F)c2)c2c(N)ncnc21 [GSK2606414]	70.4 ± 15.3	109.9	6.60	250 ± 60	IC50 (SARS-CoV-2 [3]): 200 nM; pIC50 (SARS-CoV-2 [3]): 6.70
FC(F)(F)Oc1ccc2nc(-c3ccc(OCCOCCOc4ccc(-c5nc6ccc(OC(F)(F)F)cc6[nH]5)nc4)cn3)[nH]c2c1 [AI-10-49]	6.58 ± 9.76	103.8	6.72	190 ± 60	pIC50 (SARS-CoV-2 [3]): 6.68
CC(C)C(=O)OCC(=O)[C@@]12O[C@H](C3CCCCC3)O[C@@H]1C[C@H]1[C@@H]3CCC4=CC(=O)C=C[C@]4(C)[C@H]3[C@@H](O)C[C@@]12C [Ciclesonide]					IC50 [1, 5]: 47 µM; Emax [1, 5]: 35.2%; inhibition at 10 µM (SARS-CoV-2 [2]): 85.4%
CC(C)(C)c1ccc(/C=C/C(=O)Nc2ccc3c(c2)OCCO3)cc1 [AMG-9810]	14.2 ± 17.9	93.7			
N=C(N)c1ccc2cc(OC(=O)c3ccc(N=C(N)N)cc3)ccc2c1 [Nafamostat mesylate]					CC50 at 48 h [4]: > 20 µM; % Inh (% inhibition of virus infection) (SARS-CoV-2 [3]): 89.8%
Cl.Nc1nc(NCC2CCC(CNS(=O)(=O)c3cccc4ccccc34)CC2)nc2ccccc12 (stereo not drawn) [CGP-71683]		102.5			Maximum confluence reached (%) [1]: 39.25%

Compound	CC50 (CaCo-2 cells) [µM]	% Inh. (% Inhibition of SARS-CoV-2) (SARS-CoV-2 [3]) [%]	pIC50: -log10 of IC50 (SARS-CoV-2 [3]; [6])	IC50 (SARS-CoV-2 [3]; [7]) [nM]	further results
Cn1cc(-c2ccncc2)c(-c2ccc(OCc3ccc4ccccc4n3)cc2)n1 [PF-2545920]		67.8			Maximum confluence reached (%) [1]: 36.73%
CCCCC1(C2CCCC2)Cc2cc(OCCCC(=O)O)c(Cl)c(Cl)c2C1=O (stereo not drawn) [DCPIB]	24.6 ± 11.7	80.3			
CC[C@@H](C(=O)[C@@H](C)[C@@H](O)[C@H](C)[C@@H]1O[C@@H]([C@@H](CC)C(=O)O)CC[C@@H]1C)[C@H]1O[C@]2(C=C[C@@H](O)[C@]3(CC[C@@](C)([C@H]4CC[C@](O)(CC)[C@H](C)O4)O3)O2)[C@H](C)C[C@@H]1C [Salinomycin (Procoxacin), Salinomycin]					Emax [1, 5]: 34.4%; inhibition at 10 µM (SARS-CoV-2 [2]): 90.2%
CCOC(=O)c1ncc2[nH]c3ccc(OCc4ccccc4)cc3c2c1COC.Cl [ZK-93423]	0.91 ± 0.13	75.1	5.87	1340 ± 920	IC50 (SARS-CoV-2 [3]): 1280 nM; pIC50 (SARS-CoV-2 [3]): 5.89
CCS(=O)(=O)N(Cc1cccnc1)c1cccc(-c2ccc(C#N)cc2)c1 [CBiPES]	13.4 ± 6.58	139.6	4.77	17000 ± 1170	
C[C@@H]1C[C@@H]([C@H](O)CC2CC(=O)NC(=O)C2)C(=O)[C@@H](C)C1 [CYCLOHEXIMIDE]					Emax [1, 5]: 63.7%
NS(=O)(=O)OC[C@@H]1C[C@@H](n2ccc3c(N[C@H]4CCc5ccccc54)ncnc32)C[C@@H]1O [Pevonedistat hydrochloride]					CC50 at 48 h [4]: 222 ± 332 µM; % Inh (% inhibition of virus infection) (SARS-CoV-2 [3]): 75.1%
C=C(c1ccccc1OCc1cccc(Cl)c1)n1ccnc1 [Cloconazole HCl]	33	92.8			
Nc1nccc(-c2c(-c3ccc(F)cc3)ncn2C2CCCCC2)n1 [PF-670462]	8.24 ± 7.87	111.6			
NC(=NC1C2CC3CC(C2)CC1C3)Nc1ccc(I)cc1 (stereo not drawn) [IPAG]	11.5 ± 9.83	180.5	5.22	5960 ± 570	Maximum confluence reached (%) [1]: 81.85%
CC(C)(C)c1cc(/C=C(\C#N)C(N)=S)cc(C(C)(C)C)c1O [Tyrphostin AG 879 (AG 879), Tyrphostin AG 879]	1.36 ± 0.08	104.2	6.70	200 ± 10	IC50 (SARS-CoV-2 [3]): 200 nM; pIC50 (SARS-CoV-2 [3]): 6.70
polidocanol	10.3 ± 1.62	85.8	6.66	220 ± 20	pIC50 (SARS-CoV-2 [3]): 6.68
OCCNC1CCCc2c1[nH]c1ccc(-c3ccccc3)cc21 (stereo not drawn) [casin]		71.2			Maximum confluence reached (%) [1]: 50.81%
NC(=O)c1nnn(Cc2cc(Cl)c(C(=O)c3ccc(Cl)cc3)c(Cl)c2)c1N [carboxyamidotriazole]					CC50 at 48 h [4]: 0.11 ± 0.04 µM; % Inh (% inhibition of virus infection) (SARS-CoV-2 [3]): 135.1%
O=C(O)Cc1cccc(OCCCN(Cc2cccc(C(F)(F)F)c2Cl)CC(c2ccccc2)c2ccccc2)c1 [GW-3965]					Emax [1, 5]: 38%; inhibition at 10 µM (SARS-CoV-2 [2]): 91.4%
CCCc1c(-c2ccc(O)cc2)nn(-c2ccc(O)cc2)c1-c1ccc(O)cc1 [PPT]		71.1			Maximum confluence reached (%) [1]: 48.2%; IC50 ([1]; read-out: IC50): 8.3 µM
